Entries after “also recorded” stand apart in the source; their conditions may differ.
Columns and labels:
[1] = tested on: rectus abdominis muscle of Papio ursinus; assay: Heterotopic implantation of macroporous 7% HA/CC constructs in rectus abdominis muscle, histological evaluation of bone induction; format: in vivo; details: coral-derived 7% HA/CC macroporous constructs pre-loaded with 0.24 mg zoledronate; intramuscular (rectus abdominis) implantation in adult Papio ursinus; harvested 90 days after implantation
Procedure: Topographical modification of the implanted constructs may be of the utmost importance for the differentiation of myoblastic/myoendothelial and/or perivascular/endothelial stem cells into osteoblastic-like cells. In order to study the effect of the osteoclastic activity on cell differentiation and the induction of bone formation, samples of solid porous construct compositions, typically macroporous hydroxyapatites were pre-loaded with 0.24 mg of the osteoclastic inhibitor biphosphonate zoledronate (Zometa®). Samples with and without zoledronate were then implanted in the rectus abdominis muscle of Papio ursinus.
A biomaterial to act, in use, as a platform for bone growth induction and/or bone growth was prepared. Said solid porous composition in the form of macroporous hydroxyapatite replicas of the calcium carbonate exoskeletal microstructure of the coral genus Goniopora was prepared by hydrothermal chemical exchange with phosphate [(5) Ripamonti, U. J Bone Joint Surg Am 1991; 73:692-703; (6) Ripamonti U, Richter P W, Nilen R W N, Renton L., J Cell Mol Med 2008; 12:1029-48., (7) Shors EC, Orthop Clin North Am 1999:30:599-613; (8) Ripamonti U, van den Heever B, van Wyk J., Matrix 1993;13:491-502; (9) Ripamonti, R. M. Klar, L. F. Renton, C Ferretti., Biomaterials, 31, 6400-6410 (2010). The entirety of which are incorporated by reference herein]. […]

[2] = tested on: osteogenic protein-1 (OP-1) gene expression; assay: qTR-PCR analyses of harvested biomaterial constructs; format: in vivo; details: harvested constructs pre-treated with 0.24 mg zoledronate; Papio ursinus rectus abdominis
Text: It is important to note that in specimens with bone formation by induction there is always expression of the OP-1 gene, i.e. there is a direct correlation between the induction of bone and the expression of the OP-1 gene.

SMILES: O=P(O)(O)C(O)(Cn1ccnc1)P(=O)(O)O [zoledronate]
- induction of bone formation / differentiation of bone within macroporous spaces (histology) [1]: lack of bone induction and/or bone growth; also recorded: either did not induce the differentiation of bone at all, or the induction was considerably inhibited; also recorded: In two specimens, the spontaneous induction of bone formation was altogether absent; also recorded: minor amounts of bone had formed by induction at the periphery; also recorded: very limited bone formation
- osteogenic protein-1 (OP-1) gene expression [2]: dramatic reduction

Reference: patent US20130216630A1, “BIOMATERIALS FOR USE IN METHODS OF BONE REPLACEMENT THERAPY” (UNIVERSITY OF WITWATERSRAND, JOHANNESBURG, priority 2010, published 2013)
